According to patent US20110015221A1, “PHARMACEUTICAL COMPOSITION OF VINFLUNINE WHICH IS INTENDED FOR PARENTERAL ADMINISTRATION PREPARATION METHOD THEREOF AND USE OF SAME” (PIERRE FABRE MEDICAMENT, priority 2003, published 2011):
≈ marks a conversion by molar mass, not a printed value.

Assays:
[1] = Stability at 25° C.: total amount of vinflunine-related impurities, pulverulent form vs aqueous solution; format: physicochemical
Text: The stability is monitored by observing the changes in the total amount of vinflunine-related impurities present.

[2] = Solubility; details: water

Row | SMILES | increase of the total amount of vinflunine-related impurities ([1]; after storage for 6 months at 25° C.) [%] | % impurity relative to 100% of active principle (total vinflunine-related impurities) ([1]; t0) [%] | % impurity relative to 100% of active principle (total vinflunine-related impurities) ([1]; t3 months, storage at 25° C.) [%] | % impurity relative to 100% of active principle (total vinflunine-related impurities) ([1]; t6 months, storage at 25° C.) [%] | solubility [2] [mg/mL]
1 | CC[C@]12C=CCN3CC[C@@]4(c5cc([C@@]6(C(=O)OC)CC7CC(C(C)(F)F)CN(Cc8c6[nH]c6ccccc86)C7)c(OC)cc5N(C)[C@H]4C(O)(C(=O)OC)[C@@H]1OC(C)=O)[C@@H]32 (stereo partly drawn) [batch 503, 20′,20′-difluoro-3′,4′-dihyrovinorelbine L(+)-tartrate] | 197 | 1.17 | 2.75 | 3.48 | 
2 | CC[C@]12C=CCN3CC[C@@]4(c5cc([C@@]6(C(=O)OC)CC7CC(C(C)(F)F)CN(Cc8c6[nH]c6ccccc86)C7)c(OC)cc5N(C)[C@H]4C(O)(C(=O)OC)[C@@H]1OC(C)=O)[C@@H]32 (stereo partly drawn) [vinflunine, 20′,20′-difluoro-3′,4′-dihydrovinorelbine] |  |  |  |  | 290 to 330 (≈ 355 to 404 mM)
3 | CCC1=C[C@@H]2CN(C1)Cc1c([nH]c3ccccc13)[C@@](C(=O)OC)(c1cc3c(cc1OC)N(C)[C@H]1[C@@](O)(C(=O)OC)[C@H](OC(C)=O)[C@]4(CC)C=CCN5CC[C@]31[C@@H]54)C2 [vinorelbine] |  |  |  |  | 1000 (≈ 1280 mM)
